≈ marks a conversion by molar mass, not a printed value. Where two headings read alike, the source gives them in different places.
Columns and labels:
[1] = tested on: Enterococcus faecalis—S613 HM-334; assay: MIC, broth microdilution in TSB; assay type: cell-based; conditions: Enterococcus
Method: (§1) The minimum inhibitory concentrations (MICs) of the compounds and control drugs were determined using the broth microdilution method, according to guidelines outlined by the Clinical and Laboratory Standards Institute (CLSI). Enterococci strains were grown aerobically overnight on tryptone soya agar plates at 37° C., afterwards a bacterial solution equivalent to 0.5 McFarland standard was prepared and diluted in tryptone soy broth (TSB) to achieve a bacterial concentration of about 5×10^5 CFU/mL and seeded in 96-well well plates. Compounds and control drugs were added in the first row of the 96-well plates and serially diluted along the plates. Plates were then incubated aerobically at 37° C. for 18-20 hours. MICs reported in Table 1 are the minimum concentration of the compounds/control drugs that could inhibit completely the visual growth of the bacteria.

[2] = tested on: Enterococcus faecium E417-HM-965; assay: MIC, broth microdilution in TSB; assay type: cell-based; conditions: Enterococcus faecium
Method: as §1

[3] = tested on: Enterococcus faecium Patient #2-1-NR-31909; assay: MIC, broth microdilution in TSB; assay type: cell-based; conditions: Enterococcus faecium
Method: as §1

[4] = tested on: Enterococcus faecium Patient #3-1 NR-31912; assay: MIC, broth microdilution in TSB; assay type: cell-based; conditions: Enterococcus faecium
Method: as §1

[5] = tested on: Enterococcus fecalis Strain MMH594-NR31975; assay: MIC, broth microdilution in TSB; assay type: cell-based; conditions: Enterococcus
Method: as §1

[6] = tested on: Enterococcus fecalis Strain SF 24397 NR31970; assay: MIC, broth microdilution in TSB; assay type: cell-based; conditions: Enterococcus
Method: as §1

[7] = tested on: Enterococcus fecalis Strain SF 28073-NR31972; assay: MIC, broth microdilution in TSB; assay type: cell-based; conditions: Enterococcus
Method: as §1

[8] = tested on: Enterococcus fecalis Strain SF24413 NR31971; assay: MIC, broth microdilution in TSB; assay type: cell-based; conditions: Enterococcus
Method: as §1

[9] = tested on: MRSA NRS 384 (MRSA USA300); assay: MIC against Staphylococci, broth microdilution; assay type: cell-based, Staphylococcus aureus; conditions: Staphylococcus aureus
Method: as §1, with “Institute (CLSI) 1. Staphylococci” for “Institute (CLSI). Enterococci”, “Table 2” for “Table 1”

[10] = tested on: Staphylococcus epidermidis NRS 101; assay: MIC against Staphylococci, broth microdilution; assay type: cell-based; conditions: Staphylococcus epidermidis, NRS101
Method: as §1, with “Institute (CLSI) 1. Staphylococci” for “Institute (CLSI). Enterococci”, “Table 2” for “Table 1”

[11] = tested on: Bacteroides dorei—CL02T12C06 HM-719; assay: MIC against human normal gut microbiota; assay type: cell-based; conditions: Bacteroides
Method: (§2) Three different bacterial strains were used in this experiment; Bifidobacterium (anaerobic Gram positive bacteria), Bacteroides (anaerobic Gram negative bacteria) and Lactobacillus (microaerophilic Gram positive bacteria). Bifidobacterium and Bacteroides were first grown for 48 hours at 37° C., anaerobically using brain heart infusion supplemented (BHIS) agar (Brain heart infusion agar supplemented with hemin, vitamin K and L-cysteine). Lactobacillus was cultivated on MRS agar and incubated in presence of 5% CO2 for 48 hours at 37° C. Each bacterium was suspended in phosphate buffered saline (PBS) to produce a suspension with optical density that matches 0.5 McFarland standard and diluted in brain heart infusion supplemented broth (for Bifidobacterium and Bacteroides) or in MRS broth (for Lactobacillus) to achieve bacterial concentration of approximately 5×10^5 CFU/ml. Bacteria were then seeded in 96-well plates containing serial dilutions of the compounds and incubated as mentioned previously for 48 hours.

[12] = tested on: Bacteroides fragilis—CL07T00C01 HIM-709; assay: MIC against human normal gut microbiota; assay type: cell-based; conditions: Bacteroides
Method: as §2

[13] = tested on: Bifidobacterium breve—JCP7499 HIM 1120; assay: MIC against human normal gut microbiota; assay type: cell-based; conditions: Bifidobacterium
Method: as §2

[14] = tested on: Bifidobacterium longum subsp. Longum—44B HM 845; assay: MIC against human normal gut microbiota; assay type: cell-based; conditions: Bifidobacterium longum
Method: as §2

[15] = tested on: Lactobacillus casei ATCC 334; assay: MIC against human normal gut microbiota; assay type: cell-based; conditions: Lacticaseibacillus casei
Method: as §2

[16] = tested on: Lactobacillus gasseri EX336960VC03 HIM-400; assay: MIC against human normal gut microbiota; assay type: cell-based; conditions: Lactobacillus gasseri
Method: as §2

[17] = tested on: Enterococcus faecium E417-HM-965; assay: MIC of CAIs in BHIB and TSB; assay type: cell-based
Method: (§3) The minimum inhibitory concentrations (MICs) of CAIs were tested against clinical isolates of vancomycin sensitive and vancomycin resistant Enterococci strains as per the guidelines provided by the Clinical and Laboratory Standards Institute (CLSI). The selected strains of Enterococci were streaked on Tryptic Soy Agar (TSA) plates and let grow for 24 hours at 37° C. Afterwards, a bacterial solution equivalent to 0.5 McFarland standard was prepared and diluted in tryptone soy broth (TSB) or brain heart infusion broth (BHIB) to achieve a bacterial concentration of about 5×10^5 CFU/mL and seeded in 96-well well plates. Compounds and control drugs were added in the first row of the 96-well plates and serially diluted along the plates. Plates were then incubated aerobically at 37° C. for 18-20 hours. MICs reported in Table 5 are the minimum concentration of the compounds/control drugs that could inhibit completely the visual growth of the bacteria.

[18] = tested on: Enterococcus faecium Patient #2-1-NR-31909; assay: MIC of CAIs in BHIB and TSB; assay type: cell-based
Method: as §3

[19] = tested on: Enterococcus fecalis Strain SF 24397 NR31970; assay: MIC of CAIs in BHIB and TSB; assay type: cell-based
Method: as §3

[20] = tested on: Enterococcus faecalis—S613 HM-334; assay: MIC of CAIs in BHIB and TSB; assay type: cell-based
Method: as §3, with “bacteria. The MIC values of CAIs against the tested VRE strains were higher in BHIB than in TSB. This may be due to binding of these drugs to proteins. […] They inhibited the VRE strains at MIC values ranging from 1 to 4 μg/mL.” for “bacteria.”

[21] = TSB, Table 7, read-out: MIC in TSB
[22] = E417HM965, TSB, Table 1, read-out: MIC
[23] = E417HM965, TSB, Table 7, read-out: MIC in TSB
[24] = BHIS broth, anaerobic, 48 hours, read-out: MIC
[25] = ATCC334, MRS broth, 5% CO2, 48 hours, read-out: MIC
[26] = MRS broth, 5% CO2, 48 hours, read-out: MIC

`NS(=O)(=O)c1nnc(NC(=O)c2ccccc2)s1` [CAI0012, N-(5-Sulfamoyl-1,3,4-thiadiazol-2-yl)benzamide] gave an MIC ([1]; TSB, Table 1, read-out: MIC) of 4 µg/mL (≈ 14.1 µM), an MIC [1, 21] of 4 µg/mL (≈ 14.1 µM) and an MIC [2, 22] of 2 µg/mL (≈ 7.03 µM). For the same molecule, the MIC [2, 23] was 2 µg/mL (≈ 7.03 µM), the MIC ([3]; TSB, Table 1, read-out: MIC) was 1 µg/mL (≈ 3.52 µM) and the MIC [3, 21] was 1 µg/mL (≈ 3.52 µM). For the same molecule, the MIC ([4]; TSB, Table 1, read-out: MIC) was 1 µg/mL (≈ 3.52 µM), the MIC [4, 21] was 1 µg/mL (≈ 3.52 µM) and the MIC ([5]; TSB, Table 1, read-out: MIC) was 4 µg/mL (≈ 14.1 µM). The MIC [5, 21] was 4 µg/mL (≈ 14.1 µM), the MIC ([6]; TSB, Table 1, read-out: MIC) was 4 µg/mL (≈ 14.1 µM) and the MIC [6, 21] was 4 µg/mL (≈ 14.1 µM). For the same molecule, the MIC ([7]; TSB, Table 1, read-out: MIC) was 8 µg/mL (≈ 28.1 µM), the MIC [7, 21] was 8 µg/mL (≈ 28.1 µM) and the MIC ([8]; TSB, Table 1, read-out: MIC) was 4 µg/mL (≈ 14.1 µM). For the same molecule, the MIC [8, 21] was 4 µg/mL (≈ 14.1 µM), the MIC ([9]; TSB, read-out: MIC) was > 64 µg/mL and the MIC ([10]; TSB, read-out: MIC) was > 64 µg/mL. The MIC [11, 24] was > 64 µg/mL, the MIC [12, 24] was > 64 µg/mL and the MIC [13, 24] was > 64 µg/mL. For the same molecule, the MIC [14, 24] was > 64 µg/mL, the MIC [15, 25] was > 64 µg/mL and the MIC [16, 26] was > 64 µg/mL.

With `CN[C@H](CC(C)C)C(=O)N[C@H]1C(=O)N[C@@H](CC(N)=O)C(=O)N[C@H]2C(=O)N[C@H]3C(=O)N[C@H](C(=O)N[C@H](C(=O)O)c4cc(O)cc(O)c4-c4cc3ccc4O)[C@H](O)c3ccc(c(Cl)c3)Oc3cc2cc(c3O[C@@H]2O[C@H](CO)[C@@H](O)[C@H](O)[C@H]2O[C@H]2C[C@](C)(N)[C@H](O)[C@H](C)O2)Oc2ccc(cc2Cl)[C@H]1O` [Vancomycin, reference compound] the MIC [1] was > 64 µg/mL, the MIC ([1]; read-out: MIC in TSB) was > 64 µg/mL and the MIC ([2]; E417HM965) was > 64 µg/mL. For the same molecule, the MIC ([2]; E417HM965, read-out: MIC in TSB) was > 64 µg/mL, the MIC [3] was > 64 µg/mL and the MIC ([3]; read-out: MIC in TSB) was > 64 µg/mL. For the same molecule, the MIC [4] was > 64 µg/mL, the MIC ([4]; read-out: MIC in TSB) was > 64 µg/mL and the MIC [5] was 2 µg/mL (≈ 1.38 µM). It also gave an MIC ([5]; read-out: MIC in TSB) of 2 µg/mL (≈ 1.38 µM), an MIC [6] of 2 µg/mL (≈ 1.38 µM) and an MIC ([6]; read-out: MIC in TSB) of 2 µg/mL (≈ 1.38 µM). The MIC [7] was > 64 µg/mL, the MIC ([7]; read-out: MIC in TSB) was > 64 µg/mL and the MIC [8] was 32 µg/mL (≈ 22.1 µM). The MIC ([8]; read-out: MIC in TSB) was 32 µg/mL (≈ 22.1 µM), the MIC [9] was 1 µg/mL (≈ 0.69 µM) and the MIC [10] was 4 µg/mL (≈ 2.76 µM). It also gave an MIC ([11]; 48 h) of 64 µg/mL (≈ 44.2 µM), an MIC ([12]; 48 h) of 64 µg/mL (≈ 44.2 µM) and an MIC ([13]; 48 h) of 8 µg/mL (≈ 5.52 µM). The MIC ([14]; 48 h) was 8 µg/mL (≈ 5.52 µM), the MIC ([15]; ATCC334, 48 h) was > 64 µg/mL and the MIC ([16]; 48 h) was > 64 µg/mL. For the same molecule, the MIC ([17]; Enterococcus faecium, E417HM965) was > 128 µg/mL, the MIC ([17]; TSB, Table 5) was >128 µg/mL and the MIC ([18]; Enterococcus faecium) was > 128 µg/mL. For the same molecule, the MIC ([18]; TSB, Table 5) was >128 µg/mL, the MIC ([19]; Enterococcus) was 2 µg/mL and the MIC ([19]; TSB, Table 5) was 2 µg/mL. For the same molecule, the MIC ([20]; Enterococcus) was > 128 µg/mL and the MIC ([20]; TSB, Table 5) was >128 µg/mL.

`CCC(=O)Nc1nnc(S(N)(=O)=O)s1` [CAI0009, N-(5-Sulfamoyl-1,3,4-thiadiazol-2-yl) propionamide] was tested, and the MIC ([1]; TSB, Table 1, read-out: MIC) was 2 µg/mL (≈ 8.46 µM), the MIC [1, 21] was 2 µg/mL (≈ 8.46 µM) and the MIC [2, 22] was 1 µg/mL (≈ 4.23 µM). For the same molecule, the MIC [2, 23] was 1 µg/mL (≈ 4.23 µM), the MIC ([3]; TSB, Table 1, read-out: MIC) was 1 µg/mL (≈ 4.23 µM) and the MIC [3, 21] was 1 µg/mL (≈ 4.23 µM). For the same molecule, the MIC ([4]; TSB, Table 1, read-out: MIC) was 1 µg/mL (≈ 4.23 µM), the MIC [4, 21] was 1 µg/mL (≈ 4.23 µM) and the MIC ([5]; TSB, Table 1, read-out: MIC) was 2 µg/mL (≈ 8.46 µM). It also gave an MIC [5, 21] of 2 µg/mL (≈ 8.46 µM), an MIC ([6]; TSB, Table 1, read-out: MIC) of 4 µg/mL (≈ 16.9 µM) and an MIC [6, 21] of 4 µg/mL (≈ 16.9 µM). For the same molecule, the MIC ([7]; TSB, Table 1, read-out: MIC) was 4 µg/mL (≈ 16.9 µM), the MIC [7, 21] was 4 µg/mL (≈ 16.9 µM) and the MIC ([8]; TSB, Table 1, read-out: MIC) was 4 µg/mL (≈ 16.9 µM). For the same molecule, the MIC [8, 21] was 4 µg/mL (≈ 16.9 µM), the MIC ([9]; TSB, read-out: MIC) was > 64 µg/mL and the MIC ([10]; TSB, read-out: MIC) was > 64 µg/mL. For the same molecule, the MIC [11, 24] was > 64 µg/mL, the MIC [12, 24] was > 64 µg/mL and the MIC [13, 24] was > 64 µg/mL. The MIC [14, 24] was > 64 µg/mL, the MIC [15, 25] was > 64 µg/mL and the MIC [16, 26] was > 64 µg/mL.

Source: US12378211B2, “Carbonic anhydrase inhibitors and antibiotics against multidrug resistant bacteria” (Purdue Research Foundation, priority 2018, dated 2025)
